Reference: US20030206953A1, “Aggregates of spherical multivalent metal alginate microparticles and methods of making them” (priority 1997, published 2003)
Converted amounts (≈) assume the structure as drawn.

Columns and labels:
[1] = Solubility in water per Japanese Pharmacopoeia (13th Amendment); conditions: 20 °C, thermodynamic from solid
Description: (§1) As used herein, the term “solubility” in accordance with the Japanese Pharmacopoeia (the 13th Amendment) refers to the degree of dissolution of a medicament in a solvent within 30 minutes when 1 g of the medicament is added to the solvent and mixing them with vigorous shaking at intervals of 5 minutes at 20° C.±5° C. In the present specification, the solubility is evaluated in accordance with this method. When the amount (ml) of water required to dissolve 1 g of a medicament is 30 ml or more, the solubility of the medicament represents the grades of “slightly soluble” or “hardly soluble”.

[2] = Dissolution test, paddle method, second solution (artificial intestinal juice, pH 6.8); assay type: physicochemical; conditions: artificial intestinal juice (second solution, pH 6.8); within two hours; FIG. 3
Source text: As used herein, the term “artificial intestinal juice (the second solution, pH 6.8)” refers to a phosphate buffer of pH 6.8 as described in the Japanese Pharmacopoeia (the 13th Amendment), the section of dissolution test, the second method (paddle method). As used herein, the term “dissolution rate” refers to a value given by dividing the actual elution concentration of a slightly soluble medicament by the calculated elution concentration and expressing the resultant value as a percent. Here, the term “calculated elution concentration” refers to the concentration given when hypothesizing that the entire slightly soluble medicament added to the second solution is dissolved. For example, the calculated elution concentration of a slightly soluble medicament given when 5 g of the medicament is added to 500 ml of the second solution is 10 mg/ml. In this case, when the actual elution concentration is 5 mg/ml, the dissolution rate is 50%.
In general, the dissolution rate of a slightly soluble medicament by itself is slow in the artificial intestinal juice, and the saturated dissolution amount is small. Therefore, the saturated dissolution concentration tends to be smaller than the calculated concentration. […]

physchem = conditions: 20 °C, water, thermodynamic from solid
Description: as §1

| SMILES | solubility at 30 min [1] [µg/mL] | dissolution rate [2] | solubility at 30 min (physchem) [µg/mL] |
| --- | --- | --- | --- |
| CC(=O)Oc1ccccc1C(=O)O [Aspirin, aspirin] | 3630 (≈ 20.1 mM) | – | – |
| COc1ccc2c(c1)c(CC(=O)O)c(C)n2C(=O)c1ccc(Cl)cc1 [Indomethacin, indomethacin] | – | less than 40% | < 100 |
| CC(=O)Nc1ccc(O)cc1 [Acetaminophen, acetaminophen] | – | – | 13100 (≈ 86.7 mM) |
| CCOc1ccccc1C(N)=O [Ethenzamide] | < 100 | – | – |
